What was measured:
[1] = tested on: PLP induced remitting-relapsing EAE; test: PLP induced remitting-relapsing EAE; type: in vivo, SJL female mice; conditions: for average clinical score on the first peak of the disease: vehicle 3.63±0.25; for average clinical score at the second peak of the disease (first relapse): vehicle 3.14±0.48; for reduction in average clinical score at peak as compared to vehicle: first peak; for AUC of clinical score: over 23 days, vehicle 54.13±9.58; for reduction in average clinical score as compared to vehicle: second peak
Human CB2 Receptor = target: T1, Human CB2 Receptor (Homo sapiens, UniProt P34972); test: [35S]GTPγS-binding assay, hCB2; type: biochemical; conditions: GTPγS, Human CB2 Receptor, NB = no binding
T1 construct: host or cells: Sf9 or HEK-293 cells (membranes)

Human CB1 Receptor = target: T2, Human CB1 Receptor (Homo sapiens, UniProt P21554); test: [35S]GTPγS-binding assay, hCB1; type: biochemical; conditions: NB = no binding
T2 construct: expressed in transfected cells; host or cells: HEK-293 cells (membranes)

IL-10 = test: Gene expression in LPS activated RAW 264.7 macrophages, IL-10; type: cell-based, mouse; conditions: RAW 264.7, 10 μM, LPS 1 μg/ml, RNA 3 hrs after activation
Experimental: RAW 264.7 macrophages, a mouse cell line (ATCC # TIB 71), were grown in Dulbecco's modified Eagle's medium (DMEM) with 4 mM L-glutamine adjusted to contain 1.5 g/L sodium bicarbonate, 4.5 g/L glucose, and 10% heat inactivated fetal bovine serum. Cells were grown in tissue culture flasks and seeded at appropriate density into 6 wells tissue culture plates. Four million Raw cells in half a milliliter were stimulated with 1 μg/ml LPS E. coli 055:B5 (DIFCO Laboratories). The mouse macrophages were pre-treated for one hour with controls or 10 μM of test compounds, and later on activated with LPS. RNA samples were extracted from the cells 3 hrs after activation and gene expression levels were analyzed by real-time RT-PCR. In parallel, supernatants were collected and secretion of inflammatory mediators was analyzed using ELISA techniques according to the instructions of the kit manufacturer.
Total RNA is prepared using SV total RNA isolation system (Promega). The cells were homogenized in lysis buffer. […] RNA concentrations were determined using GeneQuant II (Pharmacia-Amersham). […] Quantitative real-time RT-PCR included 1 μl of the cDNA, 300 nM of the appropriate forward and reverse primers (according to the gene monitored) and 7.5 μl of the reaction mix containing buffer, nucleotides, Taq polymerase and SYBER green (SYBER Green master mix, Applied Biosystems), in a total reaction volume of 15 μl. […]

T1 sequence (P34972 whole entry): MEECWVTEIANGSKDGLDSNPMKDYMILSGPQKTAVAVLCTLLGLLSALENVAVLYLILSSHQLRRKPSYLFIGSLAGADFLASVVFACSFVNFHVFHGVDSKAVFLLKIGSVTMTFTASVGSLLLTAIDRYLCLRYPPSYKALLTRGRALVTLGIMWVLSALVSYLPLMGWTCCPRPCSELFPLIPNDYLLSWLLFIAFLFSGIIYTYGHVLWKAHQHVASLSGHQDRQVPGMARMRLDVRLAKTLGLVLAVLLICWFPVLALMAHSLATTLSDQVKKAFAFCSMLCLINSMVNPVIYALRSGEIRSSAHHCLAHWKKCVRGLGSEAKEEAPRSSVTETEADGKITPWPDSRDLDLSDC
T2 sequence (P21554 whole entry): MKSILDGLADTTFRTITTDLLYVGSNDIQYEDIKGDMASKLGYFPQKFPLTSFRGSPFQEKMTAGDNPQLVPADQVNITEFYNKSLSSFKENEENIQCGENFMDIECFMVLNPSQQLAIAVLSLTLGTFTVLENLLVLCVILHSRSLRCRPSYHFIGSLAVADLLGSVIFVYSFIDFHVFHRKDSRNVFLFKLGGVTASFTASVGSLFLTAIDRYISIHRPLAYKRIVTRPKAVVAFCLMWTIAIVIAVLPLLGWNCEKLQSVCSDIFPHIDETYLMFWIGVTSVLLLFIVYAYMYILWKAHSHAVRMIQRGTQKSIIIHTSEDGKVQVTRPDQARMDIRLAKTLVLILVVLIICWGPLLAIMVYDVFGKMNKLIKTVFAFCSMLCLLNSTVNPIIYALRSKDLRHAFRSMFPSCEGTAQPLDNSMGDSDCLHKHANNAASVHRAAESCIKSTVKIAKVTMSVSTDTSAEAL

Row | SMILES | average clinical score on the first peak of the disease ([1]; 5 mg/kg p.o. daily for 10 days) | average clinical score at the second peak of the disease (first relapse) ([1]; 5 mg/kg p.o.) | average clinical score on the first peak of the disease ([1]; 10 mg/kg i.p. daily for 10 days) | average clinical score at the second peak of the disease (first relapse) ([1]; 10 mg/kg i.p.) | reduction in average clinical score at peak as compared to vehicle ([1]; 5 mg/kg p.o.) [%] | reduction in average clinical score at peak as compared to vehicle ([1]; 10 mg/kg i.p.) [%] | reduction of overall severity of the disease (expressed in AUC) ([1]; i.p.) [%] | AUC of clinical score ([1]; 5 mg/kg p.o.) | AUC of clinical score ([1]; 10 mg/kg i.p.) | reduction of overall severity of the disease (expressed in AUC) ([1]; p.o.) [%] | reduction in average clinical score as compared to vehicle ([1]; i.p.) [%] | reduction in average clinical score as compared to vehicle ([1]; p.o.) [%] | EC50 (Human CB2 Receptor) [nM] | Emax (Human CB2 Receptor; upper plateau of curve) [%] | EC50 (Human CB1 Receptor) [nM] | Emax (Human CB1 Receptor; upper plateau of curve) [%] | Percent inhibition of gene expression, IL-10 (IL-10) [%]
1 | CCCCCCC(C)(C)c1cc(O)c2c(c1)OC1C(O)CCCCC21 (stereo not drawn) [Compound C7S-2, 2-(1,1-dimethylheptyl)-5,6,7,8,9,9a-hexahydro-4bH-10-oxa-benzo[α]azulen-4,9-diol] | 2.78±0.15 | 1.25±0.41 | 2.43±0.26 | 0.57±0.11 | 23 | 33 | 64 | 28.13±5.74 | 19.43±2.51 | 48 | 82 | 60 | 227 | 26 | 359 | 50 | 
2 | CCCCC(C)(C)c1cc(O)c2c(c1)OC1C2CCC(C)(C)C1O (centres unmarked) [Compound C6S-7, 3-(1,1-dimethylpentyl)-7,7-dimethyl-5a,6,7,8,9,9a-hexahydro-dibenzofuran-1,6-diol] |  |  |  |  |  |  |  |  |  |  |  |  |  |  |  |  | 33

From patent US20090054376A1, “BENZOFURAN DERIVATIVES WITH THERAPEUTIC ACTIVITIES” (Pharmos Corporation, priority 2005, published 2009)
